Data as given in patent US10196390B2, “TYK2 inhibitors and uses thereof” (Nimbus Lakshmi, Inc., priority 2014, dated 2019).

How the values were obtained:
JAK2 = JAK2 (Homo sapiens (Human), UniProt O60674); test: JAK2 activity inhibition assay (radioactive kinase assay / Caliper assay); format: biochemical; conditions: read-out: JAK2 Ki
Outline: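 Mobility-shift (Caliper) read-out of phosphorylated peptide substrate. Compound diluted in 25 mM HEPES pH 7.5, 0.01% Brij-35, 0.01% Triton, 0.5 mM EGTA; enzyme added, then peptide plus ATP in 10 mM MgCl2. Incubated 25 min at 28° C, stopped with EDTA buffer.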

TYK2 = TYK2 (Homo sapiens (Human), UniProt P29597); test: Tyk2 activity inhibition assay (radioactive kinase assay / Caliper assay); format: biochemical
Outline: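 Radiometric format: TYK2 with peptide substrate (20 μM) and 33P-ATP at 10 μM in HEPES pH 7.5, 1% DMSO, 120 min at room temp, P81 paper capture. Caliper mobility-shift format: TYK2 9.75 nM, peptide 30 at 3 uM, ATP 16 uM (also 1 mM), 25 min at 28° C.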

JAK2, sequence (O60674 whole entry): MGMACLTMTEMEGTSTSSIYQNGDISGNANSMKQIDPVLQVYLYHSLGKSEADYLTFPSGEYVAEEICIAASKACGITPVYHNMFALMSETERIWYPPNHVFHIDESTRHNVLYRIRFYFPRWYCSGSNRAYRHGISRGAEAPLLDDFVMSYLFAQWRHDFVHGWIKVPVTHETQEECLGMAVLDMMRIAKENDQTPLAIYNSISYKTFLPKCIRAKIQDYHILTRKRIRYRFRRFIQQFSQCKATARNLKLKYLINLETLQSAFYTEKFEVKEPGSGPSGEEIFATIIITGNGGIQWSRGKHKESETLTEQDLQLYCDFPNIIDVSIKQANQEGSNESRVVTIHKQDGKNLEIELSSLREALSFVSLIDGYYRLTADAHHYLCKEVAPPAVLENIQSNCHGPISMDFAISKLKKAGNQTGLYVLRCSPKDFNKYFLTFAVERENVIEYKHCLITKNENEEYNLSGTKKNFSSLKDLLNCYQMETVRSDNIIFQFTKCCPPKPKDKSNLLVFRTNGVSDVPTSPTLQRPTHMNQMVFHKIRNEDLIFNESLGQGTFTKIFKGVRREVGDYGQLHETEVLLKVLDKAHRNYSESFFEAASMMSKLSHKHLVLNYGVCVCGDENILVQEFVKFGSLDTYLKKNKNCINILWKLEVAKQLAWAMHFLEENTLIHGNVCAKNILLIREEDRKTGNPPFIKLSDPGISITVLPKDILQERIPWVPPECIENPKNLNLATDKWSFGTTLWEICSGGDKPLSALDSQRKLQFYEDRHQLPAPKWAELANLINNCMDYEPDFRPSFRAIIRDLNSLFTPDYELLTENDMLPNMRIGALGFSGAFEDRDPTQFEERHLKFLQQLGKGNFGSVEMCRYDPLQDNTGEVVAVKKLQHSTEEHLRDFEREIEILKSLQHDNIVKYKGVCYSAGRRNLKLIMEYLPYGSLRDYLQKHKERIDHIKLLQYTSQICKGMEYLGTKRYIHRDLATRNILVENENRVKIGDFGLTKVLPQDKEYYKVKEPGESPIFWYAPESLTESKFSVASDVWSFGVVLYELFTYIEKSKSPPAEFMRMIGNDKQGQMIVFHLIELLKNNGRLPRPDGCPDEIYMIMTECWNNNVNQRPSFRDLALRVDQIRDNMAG
TYK2, sequence (P29597 whole entry): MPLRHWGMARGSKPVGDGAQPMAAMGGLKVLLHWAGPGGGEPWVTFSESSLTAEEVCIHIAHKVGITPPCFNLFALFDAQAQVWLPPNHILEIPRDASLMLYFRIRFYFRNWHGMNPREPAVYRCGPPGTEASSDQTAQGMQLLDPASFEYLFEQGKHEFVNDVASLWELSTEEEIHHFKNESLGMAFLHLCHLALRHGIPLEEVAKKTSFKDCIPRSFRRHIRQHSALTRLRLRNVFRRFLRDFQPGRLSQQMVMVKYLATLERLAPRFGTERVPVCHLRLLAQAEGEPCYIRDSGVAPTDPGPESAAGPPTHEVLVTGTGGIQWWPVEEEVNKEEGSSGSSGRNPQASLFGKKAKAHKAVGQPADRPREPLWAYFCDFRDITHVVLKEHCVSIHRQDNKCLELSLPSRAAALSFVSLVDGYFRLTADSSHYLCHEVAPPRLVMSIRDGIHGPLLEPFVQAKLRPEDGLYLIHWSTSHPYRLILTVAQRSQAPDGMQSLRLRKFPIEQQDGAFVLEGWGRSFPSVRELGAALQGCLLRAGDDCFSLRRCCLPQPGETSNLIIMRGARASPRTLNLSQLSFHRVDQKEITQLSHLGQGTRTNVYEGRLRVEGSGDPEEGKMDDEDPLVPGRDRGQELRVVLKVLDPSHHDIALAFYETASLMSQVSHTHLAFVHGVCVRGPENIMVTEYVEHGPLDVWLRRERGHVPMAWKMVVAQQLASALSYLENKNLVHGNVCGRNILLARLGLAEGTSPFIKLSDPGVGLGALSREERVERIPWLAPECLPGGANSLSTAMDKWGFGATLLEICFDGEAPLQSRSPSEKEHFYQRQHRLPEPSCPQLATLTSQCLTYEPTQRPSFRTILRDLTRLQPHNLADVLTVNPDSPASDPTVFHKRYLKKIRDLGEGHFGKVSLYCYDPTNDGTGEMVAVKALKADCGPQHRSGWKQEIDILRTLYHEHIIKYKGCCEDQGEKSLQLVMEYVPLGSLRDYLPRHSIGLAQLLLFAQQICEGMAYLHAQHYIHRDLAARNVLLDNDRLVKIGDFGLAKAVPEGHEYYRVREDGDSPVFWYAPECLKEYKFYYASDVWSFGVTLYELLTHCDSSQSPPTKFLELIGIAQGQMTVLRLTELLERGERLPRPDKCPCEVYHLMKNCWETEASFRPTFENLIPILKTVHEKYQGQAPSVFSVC

Ki (JAK2) [µM]	Ki (TYK2) [µM]	SMILES
0.1 to 1	< 0.01	O=C1NCc2nc(-c3c(F)cccc3F)nc(Nc3ccc(C4CCCNC4=O)cc3)c21 (stereo not drawn) [Compound I-153, 2-(2,6-difluorophenyl)-4-((4-(2-oxopiperidin-3-yl)phenyl)amino)-6,7-dihydro-5H-pyrrolo[3,4-d]pyrimidin-5-one]
0.1 to 1	< 0.01	O=C(Cc1ccc(Nc2nc(-c3c(F)cccc3F)nc3c2C(=O)NC3)cc1)N[C@@H]1CCCNC1 [Compound I-61, (R)-2-(4-((2-(2,6-difluorophenyl)-5-oxo-6,7-dihydro-5H-pyrrolo[3,4-d]pyrimidin-4-yl)amino)phenyl)-N-(piperidin-3-yl)acetamide]
0.01 to 0.1	< 0.01	CC1(C)CN(c2ccc(Nc3cc(-c4c(F)cccc4F)nc4c3C(=O)NC4)nc2)CC[C@H]1O [Compound I-268, (R)-2-(2,6-difluorophenyl)-4-((5-(4-hydroxy-3,3-dimethyl-piperidin-1-yl)pyridin-2-yl)amino)-6,7-dihydro-5H-pyrrolo[3,4-b]pyridin-5-one]
< 0.01	< 0.01	N[C@@H]1CCCN(c2ccc(Nc3cc(-c4c(F)cccc4F)nc4c3C(=O)NC4)nc2)C1 [Compound I-159, (R)-4-((5-(3-aminopiperidin-1-yl)pyridin-2-yl)amino)-2-(2,6-difluorophenyl)-6,7-dihydro-5H-pyrrolo[3,4-b]pyridin-5-one]
0.1 to 1	< 0.01	O=C1NCc2nc(-c3c(F)cccc3F)nc(Nc3ccc(C4CCN(CCN5CCOCC5)C4=O)cc3)c21 (stereo not drawn) [Compound I-121, 2-(2,6-difluorophenyl)-4-((4-(1-(2-morpholinoethyl)-2-oxopyrrolidin-3-yl)phenyl)amino)-6,7-dihydro-5H-pyrrolo[3,4-d]pyrimidin-5-one]
0.01 to 0.1	< 0.01	C[C@]1(c2ccc(Nc3nc(-c4c(F)cccc4F)nc4c3C(=O)NC4)cc2)NC(=O)NC1=O [Compound I-174, (R)-5-(4-((2-(2,6-difluorophenyl)-5-oxo-6,7-dihydro-5H-pyrrolo[3,4-d]pyrimidin-4-yl)amino)phenyl)-5-methylimidazolidine-2,4-dione]
0.1 to 1	< 0.01	C[C@@H](O)CNC(=O)Cc1ccc(Nc2nc(-c3c(F)cccc3F)nc3c2C(=O)NC3)cc1 [Compound I-77, (R)-2-(4-((2-(2,6-difluorophenyl)-5-oxo-6,7-dihydro-5H-pyrrolo[3,4-d]pyrimidin-4-yl)amino)phenyl)-N-(2-hydroxy-propyl)acetamide]
0.1 to 1	< 0.01	O=C(O)Cc1ccc(Nc2nc(-c3c(Cl)cccc3Cl)nc3c2C(=O)NC3)cc1 [Compound I-6, 2-(4-((2-(2,6-dichlorophenyl)-5-oxo-6,7-dihydro-5H-pyrrolo[3,4-d]pyrimidin-4-yl)amino)phenyl)acetic Acid]
0.1 to 1	< 0.01	O=C1NCc2nc(-c3c(F)cccc3F)nc(Nc3ccc([C@@H]4CCN(CCN5CCOCC5)C4=O)cc3)c21 [Compound I-123, (S)-2-(2,6-difluorophenyl)-4-((4-(1-(2-morpholinoethyl)-2-oxopyrrolidin-3-yl)phenyl)amino)-6,7-dihydro-5H-pyrrolo[3,4-d]pyrimidin-5-one]
0.1 to 1	0.01 to 0.1	O=C1NCc2nc(-c3c(F)cccc3F)nc(Nc3ccccc3)c21 [Compound I-179, 2-(2,6-difluorophenyl)-4-(phenylamino)-6,7-dihydro-5H-pyrrolo[3,4-d]pyrimidin-5-one]
0.01 to 0.1	< 0.01	C[C@@]1(c2ccc(Nc3nc(-c4c(F)cccc4F)nc4c3C(=O)NC4)cc2)NC(=O)NC1=O [Compound I-173, (S)-5-(4-((2-(2,6-difluorophenyl)-5-oxo-6,7-dihydro-5H-pyrrolo[3,4-d]pyrimidin-4-yl)amino)phenyl)-5-methylimidazolidine-2,4-dione]
< 0.01	< 0.01	CN1CCNC(C)(c2ccc(Nc3cc(-c4c(F)cccc4F)nc4c3C(=O)NC4)nc2)C1=O (stereo not drawn) [Compound I-223, 2-(2,6-difluorophenyl)-4-((5-(2,4-dimethyl-3-oxopiperazin-2-yl)pyridin-2-yl)amino)-6,7-dihydro-5H-pyrrolo[3,4-b]pyridin-5-one]
0.01 to 0.1	< 0.01	COc1ccc(Nc2nc(N3[C@H](C)CCC[C@@H]3C)nc3c2C(=O)NC3)cc1 [Compound I-183, 2-((2R,6S)-2,6-dimethylpiperidin-1-yl)-4-((4-methoxyphenyl)amino)-6,7-dihydro-5H-pyrrolo[3,4-d]pyrimidin-5-one]
0.1 to 1	< 0.01	O=C(Cc1ccc(Nc2nc(-c3c(F)cccc3F)nc3c2C(=O)NC3)cc1)NCC1CCNCC1 [Compound I-13, 2-(4-((2-(2,6-difluorophenyl)-5-oxo-6,7-dihydro-5H-pyrrolo[3,4-d]pyrimidin-4-yl)amino)phenyl)-N-(piperidin-4-ylmethyl)acetamide]
0.1 to 1	< 0.01	CCOC(=O)Cc1ccc(Nc2nc(-c3ccccc3Cl)nc3c2C(=O)NC3)cc1 [Compound I-1, Ethyl 2-(4-((2-(2-chlorophenyl)-5-oxo-6,7-dihydro-5H-pyrrolo[3,4-d]pyrimidin-4-yl)amino)phenyl)acetate]

SMILES	Ki (JAK2) [µM]	Ki (TYK2) [µM]
CC(C(=O)O)c1ccc(Nc2nc(-c3c(F)cccc3F)nc3c2C(=O)NC3)cc1 (stereo not drawn) [Compound I-189, 2-(4-((2-(2,6-difluorophenyl)-5-oxo-6,7-dihydro-5H-pyrrolo[3,4-d]pyrimidin-4-yl)amino)phenyl)propanoic Acid]	0.1 to 1	< 0.01
O=C1NCc2nc(-c3c(F)cccc3F)nc(Nc3ccc([C@@H]4CCN(C5CCC5)C4=O)cc3)c21 [Compound I-119, (S)-4-((4-(1-cyclobutyl-2-oxopyrrolidin-3-yl)phenyl)amino)-2-(2,6-difluorophenyl)-6,7-dihydro-5H-pyrrolo[3,4-d]pyrimidin-5-one]	0.1 to 1	< 0.01
CN1C(=O)[C@@](C)(c2ccc(Nc3nc(-c4c(F)cccc4F)nc4c3C(=O)NC4)cc2)CC1(C)C [Compound I-222, (R)-2-(2,6-difluorophenyl)-4-((4-(1,3,5,5-tetramethyl-2-oxopyrrolidin-3-yl)phenyl)amino)-6,7-dihydro-5H-pyrrolo[3,4-d]pyrimidin-5-one]	0.01 to 0.1	< 0.01
O=C1NCc2nc(-c3c(F)cccc3Cl)nc(Nc3ccc(C4CCNC4=O)cc3)c21 (stereo not drawn) [Compound I-113, 2-(2-chloro-6-fluorophenyl)-4-((4-(2-oxopyrrolidin-3-yl)phenyl)-amino)-6,7-dihydro-5H-pyrrolo[3,4-d]pyrimidin-5-one]	0.1 to 1	< 0.01
O=C(Cc1ccc(Nc2nc(-c3c(F)cccc3F)nc3c2C(=O)NC3)cc1)NC1CC2(CNC2)C1 [Compound I-14, 2-(4-((2-(2,6-difluorophenyl)-5-oxo-6,7-dihydro-5H-pyrrolo[3,4-d]pyrimidin-4-yl)amino)phenyl)-N-(2-azaspiro[3.3]heptan-6-yl)acetamide]	0.1 to 1	< 0.01
COc1ccc(Nc2cc(-c3c(F)cccc3Cl)nc3c2C(=O)NC3)nc1 [Compound I-145, 2-(2-chloro-6-fluorophenyl)-4-((5-methoxypyridin-2-yl)amino)-6,7-dihydro-5H-pyrrolo[3,4-b]pyridin-5-one]	0.01 to 0.1	< 0.01
